Data as given in paper PMC9662162 (Insect biochemistry and molecular biology, 2022).
pKd: −log10 of the molar value. Read-outs that look alike come from different tables or passages of the source.

How the values were obtained:
AnDar-D7L2 = AnDar-D7L2 (Anopheles darlingi, UniProt B6DDQ8); experiment: biochemical; assay type: binding; settings: for fold difference in binding tightness, serotonin vs tryptamine: ratio of KD values
AnAtr-D7L1 = target: T1, AnAtr-D7L1 (Anopheles atroparvus, UniProt A0A182IRF8); experiment: ITC ligand binding to recombinant AnAtr-D7L1; settings: for binding observed by ITC (in words): 30°C, 4 μM protein, 40 μM ligand
T1 sequence (A0A182IRF8 24-316): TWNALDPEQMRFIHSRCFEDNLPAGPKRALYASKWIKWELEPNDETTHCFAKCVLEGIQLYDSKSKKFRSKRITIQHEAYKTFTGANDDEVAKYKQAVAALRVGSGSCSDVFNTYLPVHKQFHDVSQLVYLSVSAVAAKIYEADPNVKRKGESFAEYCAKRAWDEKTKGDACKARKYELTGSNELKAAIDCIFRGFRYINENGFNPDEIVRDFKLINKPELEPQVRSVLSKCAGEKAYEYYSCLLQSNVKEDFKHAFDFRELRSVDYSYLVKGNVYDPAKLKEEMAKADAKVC

An. gambiae D7L3 = An. gambiae D7L3 (Anopheles gambiae, UniProt A0A1S4HE90); experiment: biochemical; assay type: binding
Sequence of An. gambiae D7L3 (A0A1S4HE90 27-354 limits assumed): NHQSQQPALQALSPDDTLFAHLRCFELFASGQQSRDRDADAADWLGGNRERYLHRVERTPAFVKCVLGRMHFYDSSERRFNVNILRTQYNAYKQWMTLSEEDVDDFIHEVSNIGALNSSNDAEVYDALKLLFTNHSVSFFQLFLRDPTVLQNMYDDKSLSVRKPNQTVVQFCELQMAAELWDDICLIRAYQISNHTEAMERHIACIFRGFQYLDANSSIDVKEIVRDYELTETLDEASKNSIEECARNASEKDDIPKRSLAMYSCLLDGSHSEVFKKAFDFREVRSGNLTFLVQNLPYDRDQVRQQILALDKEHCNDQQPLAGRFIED

AnSt-D7L1 = settings: ref Alvarenga et al., 2010; cited from earlier work
AeD7S1 = target: T2, AeD7S1 (Aedes aegypti, UniProt Q8T9T4); experiment: ITC serotonin binding to recombinant AeD7S1; settings: 30°C, 4 μM protein, 40 μM serotonin
T2 sequence (Q8T9T4 22-148): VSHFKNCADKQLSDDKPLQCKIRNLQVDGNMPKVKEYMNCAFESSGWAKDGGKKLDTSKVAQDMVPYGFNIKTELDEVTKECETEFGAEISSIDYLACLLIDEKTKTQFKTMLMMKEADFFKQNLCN

D7CQS1 = target: T3, D7CQS1 (Culex quinquefasciatus, UniProt Q6TS00); experiment: ITC serotonin binding to recombinant D7CQS1; settings: 30°C, 4 μM protein, 40 μM serotonin
T3 sequence (Q6TS00 19-161): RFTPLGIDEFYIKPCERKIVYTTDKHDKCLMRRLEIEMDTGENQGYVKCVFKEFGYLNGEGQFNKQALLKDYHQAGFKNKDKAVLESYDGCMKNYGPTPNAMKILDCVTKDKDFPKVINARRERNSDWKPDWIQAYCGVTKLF

Platelet-rich plasma = experiment: Platelet aggregation assay in platelet-rich plasma; assay type: cell-based, human; settings: protein 0.6, 2 and 6 μM

Sequence of AnDar-D7L2 (B6DDQ8 21-317 limits assumed): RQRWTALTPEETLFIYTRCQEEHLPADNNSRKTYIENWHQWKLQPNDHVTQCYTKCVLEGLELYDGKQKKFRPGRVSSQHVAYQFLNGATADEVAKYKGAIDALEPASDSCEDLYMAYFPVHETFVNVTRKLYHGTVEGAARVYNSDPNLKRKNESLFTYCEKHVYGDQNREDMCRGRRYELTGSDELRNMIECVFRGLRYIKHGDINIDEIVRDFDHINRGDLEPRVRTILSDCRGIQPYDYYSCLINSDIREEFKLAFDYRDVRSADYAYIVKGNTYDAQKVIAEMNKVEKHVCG

Compound: NCC(O)c1ccc(O)cc1 (racemic) [octopamine, (±)-octopamine]
- binding observed by ITC (in words) (AnDar-D7L2; ITC, 30°C): measurable

Compound: CCCCC[C@H](O)/C=C/C=C\C/C=C\C/C=C\CCCC(=O)O [15-HETE]
- binding observed by ITC (in words) (AnAtr-D7L1): No binding was detected

Compound: Nc1ncnc2c1ncn2[C@@H]1O[C@H](COP(=O)(O)OP(=O)(O)O)[C@@H](O)[C@H]1O [ADP]
- binding observed by ITC (in words) (An. gambiae D7L3; ITC, 30°C, 4 μM protein, 40 μM ligand): none
- binding observed by ITC (in words) (AnDar-D7L2; ITC, 30°C): inability to bind

Compound: CCCCC/C=C\C[C@@H](O)/C=C/C=C/C=C\[C@@H](O)CCCC(=O)O [LTB4]
- binding observed by ITC (in words) (AnAtr-D7L1): No binding was detected
- binding observed by ITC (in words) (AnDar-D7L2): unable to bind

Compound: CCCCC/C=C\C\C=C/C=C/C=C/[C@@H](SC[C@H](NC(=O)CC[C@H](N)C(=O)O)C(=O)NCC(=O)O)[C@@H](O)CCCC(=O)O [LTC4]
- binding observed by ITC (in words) (AnDar-D7L2): high affinity

Compound: CCCCC/C=C\C\C=C/C=C/C=C/[C@@H](SC[C@H](N)C(=O)NCC(=O)O)[C@@H](O)CCCC(=O)O [LTD4]
- binding observed by ITC (in words) (AnDar-D7L2): high affinity

Compound: CCCCC/C=C\C\C=C/C=C/C=C/[C@@H](SC[C@H](N)C(=O)O)[C@@H](O)CCCC(=O)O [LTE4]
- binding observed by ITC (in words) (AnDar-D7L2): high affinity

Compound: CCCCC[C@H](O)/C=C/[C@@H]1[C@@H](C/C=C\CCCC(=O)O)[C@@H](O)C[C@H]1O [PGF2α]
- binding observed by ITC (in words) (AnAtr-D7L1): No binding was detected

Compound: CCCCC[C@H](O)/C=C/[C@@H]1[C@@H](C/C=C\CCCC(=O)O)[C@H]2CO[C@@H]1C2 [U46619]
- binding (in words) (AnSt-D7L1): ability to bind
- binding observed by ITC (in words) (AnAtr-D7L1): does not bind
- binding observed by ITC (in words) (AnDar-D7L2): high affinity

Compound: NCCc1ccc(O)c(O)c1 [dopamine]
- binding observed by ITC (in words) (AnDar-D7L2): measurable

Compound: CNC[C@H](O)c1ccc(O)c(O)c1 [epinephrine]
- binding observed by ITC (in words) (AnDar-D7L2): No detectable binding

Compound: NCCc1c[nH]cn1 [histamine]
- pKd (An. gambiae D7L3): 5.82
- binding observed by ITC (in words) (AnDar-D7L2): No detectable binding

Compound: NC[C@H](O)c1ccc(O)c(O)c1 [norepinephrine, L(+)-norepinephrine]
- pKd (An. gambiae D7L3): 5.60
- binding observed by ITC (in words) (AnDar-D7L2; ITC, 30°C): measurable

Compound: NCCc1c[nH]c2ccc(O)cc12 [serotonin]
- binding (in words) (AnSt-D7L1): does not bind
- pKd (AnAtr-D7L1): ~8.52
- pKd (An. gambiae D7L3): 7.66
- pKd (AnDar-D7L2): 7.77
- fold difference in binding tightness, serotonin vs tryptamine (AnDar-D7L2; ITC): 30 fold
- serotonin binding by ITC (in words) (AeD7S1): Lack of serotonin binding
- serotonin binding by ITC (in words) (D7CQS1): Lack of serotonin binding

Compound: NCCc1c[nH]c2ccccc12 [tryptamine]
- binding observed by ITC (in words) (AnAtr-D7L1): equally high affinity
- pKd (AnDar-D7L2): 6.29
- fold difference in binding tightness, serotonin vs tryptamine (AnDar-D7L2; ITC): 30 fold

Compound: AnDar-D7L2: recombinant two-domain D7 long form salivary protein from Anopheles darlingi (EU934268.1)
- effect on ADP-induced platelet aggregation (Platelet-rich plasma; agonist ADP): did not inhibit
- effect on platelet aggregation induced by U46619 (Platelet-rich plasma; agonist U46619): inhibits
- effect on platelet aggregation induced by arachidonic acid (AA) (Platelet-rich plasma; agonist arachidonic acid): inhibits
- effect on epinephrine-induced platelet aggregation (Platelet-rich plasma; agonist epinephrine): did not inhibit
- effect on platelet aggregation induced by collagen (Platelet-rich plasma; collagen at low concentrations, 1 min preincubation): inhibits
